Laboratory results taken from patent US7951842B2, “Use of Cupuassu butter based amphoteric amidoamines as amphoteric surfactants” (Cognis Brasil Ltda., priority 2004, dated 2011).

Columns and labels:
animals = conditions: in vivo
From the text: The toxicological profile of the Cupuassuamido propyl betaine was compared to Cocamido propyl betaine.

Protocol for Red Blood Cell: The Red Blood Cell Test (RBC) was carried out with the combination of Sodium Lauryl Ether Sulfate (SLES) and Cupuassuamido Propyl Betaine (CupAPB) or Sodium Lauryl Ether Sulfate (SLES) and Cocamido Propyl Betaine (CAPB) in different concentrations.

Substance	Cumulative Dermic Irritation (animals)	Ocular Irritability (animals)	Primary Dermic Irritation (animals)	H/O (Red Blood Cell)	hemolysis (H) (Red Blood Cell)	oxidation (O) (Red Blood Cell)
Cocamido propyl betaine	Moderately irritating	Moderately irritating	Minimum irritating	–	–	–
Sodium Laureth Sulfate [SLES (7.10%)]	–	–	–	17.1	275.0	16.10
Cupuassuamido propyl betaine	Minimum irritating	Not irritating	Not irritating	–	–	–
